One compound from US20100173890A1, “Compounds, Process for their Preparation, Intermediates, Pharmaceutical Compositions and their use in the Treatment of 5-HT6 Mediated Disorders such as Alzheimer's Disease, Cognitive Disorders, Cognitive Impairment Associated with Schizophrenia, Obesity and Parkinson's Disease” (AstraZeneca AB, priority 2005, published 2010) can be followed below.

What is called Ki is the dissociation constant of the complex between target and ligand, obtained from inhibition or displacement. Read a low Ki as higher affinity.

In the experiment the target is T1, Rat Striatal 5-HT6 Receptors (Rattus norvegicus, UniProt P31388).
T1 construct: Striatal tissue from adult rats (Sprague-Dawley, 320-370 g, B & K Sweden) were dissected out, weighed and homogenized; from tissue; host or cells: rat striatum (Sprague-Dawley) membranes
Nature of the experiment: [125I]SB258585 binding to rat striatal 5-HT6 receptors. The following applies: competition with 0.5-1 nM [125I]SB258585, rat striatal membranes. As to the method:
Method for [125I]SB258585 Binding to Rat Striatal 5-HT6 Receptors
[^125I]SB258585 (1) with specific radioactivity 2000 Ci/mmol was purchased from Amersham Biosciences Europe GmbH, Freiburg, Germany. Other chemicals were is purchased from commercial sources and were of analytical grade.
Striatal tissue from adult rats (Sprague-Dawley, 320-370 g, B & K Sweden) were dissected out, weighed and homogenized in buffer containing 50 mM Tris-HCl, 4 mM MgCl2, 1 mM EDTA, 10 μM pargyline and protease inhibitor (Complete, Roche Diagnostics) pH 7.4 using an Ultra-Turrax T8 (IKA Labortechnik, Germany). The tissue homogenate was centrifuged at 48 000×g for 10 min and the pellet was resuspended and recentrifuged as above. […]
Saturation binding studies were carried out in duplicate with 1-3 mg w.w. per tube in 0.5 ml buffer (50 mM Tris, 4 mM MgCl2, 100 mM NaCl, 1 mM EDTA, 5 mM ascorbate and 10 μM pargyline at pH 7.4), 0.2 nM [^125I]SB258585 and unlabelled SB258585 to give a final concentration range of 0.23-20 nM (12 conc.). Non-specific binding was determined in the presence of 10 μM methiothepin. […] The radioactivity was determined in a Packard Tri-Carb 2900TR liquid scintillation counter: Data were analyzed by non-linear regression analyses using PRISM 4.00 (GraphPad Software Inc., San Diego, Calif.). […]

T1 sequence (P31388 whole entry): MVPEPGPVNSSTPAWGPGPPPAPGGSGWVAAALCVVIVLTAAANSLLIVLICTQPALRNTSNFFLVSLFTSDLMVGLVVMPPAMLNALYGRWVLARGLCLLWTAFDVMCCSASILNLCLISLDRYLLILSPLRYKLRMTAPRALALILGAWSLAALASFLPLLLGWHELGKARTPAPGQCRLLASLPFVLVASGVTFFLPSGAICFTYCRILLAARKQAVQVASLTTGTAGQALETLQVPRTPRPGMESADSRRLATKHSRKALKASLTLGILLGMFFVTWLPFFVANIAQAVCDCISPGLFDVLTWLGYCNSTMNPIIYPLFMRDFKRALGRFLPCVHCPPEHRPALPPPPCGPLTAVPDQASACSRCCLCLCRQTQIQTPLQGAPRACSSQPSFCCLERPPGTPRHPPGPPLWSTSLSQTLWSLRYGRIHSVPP

`O=S(=O)(Nc1cccc(Cl)c1)c1ccc2c(c1)CNCCO2` [Example 3, N-(3-Chlorophenyl)-2,3,4,5-tetrahydro-1,4-benzoxazepine-7-sulfonamide] showed a Ki of 82 ± 28 nM.
